Measurements: PubChem BioAssay (NCI)
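Values below derive from 48-hour exposures of cells grown in 96-well plates, with endpoints linearly interpolated between the two concentrations bracketing the appropriate inhibition level. TGI is the concentration that stops growth completely.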

Legend:
Assay in all cases: DTP human tumour cell line panel, 48 h
HT29 colon = test system: HT29 colon
KM20L2 colon = test system: KM20L2 colon
LXFL 529 NSCLC = test system: LXFL 529 NSCLC
M14 melanoma = test system: M14 melanoma
LOX IMVI melanoma = test system: LOX IMVI melanoma
RXF-631 renal = test system: RXF-631 renal
UACC-62 melanoma = test system: UACC-62 melanoma
OVCAR-5 ovarian = test system: OVCAR-5 ovarian
HOP-18 NSCLC = test system: HOP-18 NSCLC
SK-MEL-28 melanoma = test system: SK-MEL-28 melanoma
NCI-H460 lung = test system: NCI-H460 lung
NCI-H226 lung = test system: NCI-H226 lung
K-562 leukemia = test system: K-562 leukemia
SK-OV-3 ovarian = test system: SK-OV-3 ovarian
SK-MEL-5 melanoma = test system: SK-MEL-5 melanoma
RXF 393 renal = test system: RXF 393 renal
IGROV1 ovarian = test system: IGROV1 ovarian
M19-MEL melanoma = test system: M19-MEL melanoma
MOLT-4 leukemia = test system: MOLT-4 leukemia
ACHN renal = test system: ACHN renal
SF-295 CNS = test system: SF-295 CNS
CCRF-CEM leukemia = test system: CCRF-CEM leukemia
HCT-15 colon = test system: HCT-15 colon
SN12C renal = test system: SN12C renal
SW-620 colon = test system: SW-620 colon
DMS 273 small cell lung = test system: DMS 273 small cell lung
NCI-H23 lung = test system: NCI-H23 lung
DMS 114 small cell lung = test system: DMS 114 small cell lung
SK-MEL-2 melanoma = test system: SK-MEL-2 melanoma
SF-539 CNS = test system: SF-539 CNS
786-0 renal = test system: 786-0 renal
RPMI-8226 leukemia = test system: RPMI-8226 leukemia
DLD-1 colon = test system: DLD-1 colon
MALME-3M melanoma = test system: MALME-3M melanoma
OVCAR-3 ovarian = test system: OVCAR-3 ovarian
COLO 205 colon = test system: COLO 205 colon
XF 498 CNS = test system: XF 498 CNS
SNB-75 CNS = test system: SNB-75 CNS
CAKI-1 renal = test system: CAKI-1 renal
HL-60(TB) leukemia = test system: HL-60(TB) leukemia
OVCAR-4 ovarian = test system: OVCAR-4 ovarian
A549 NSCLC = test system: A549 NSCLC
HOP-92 NSCLC = test system: HOP-92 NSCLC
UO-31 renal = test system: UO-31 renal
A498 renal = test system: A498 renal
U251 CNS = test system: U251 CNS
KM12 colon = test system: KM12 colon
SNB-78 CNS = test system: SNB-78 CNS
HOP-62 NSCLC = test system: HOP-62 NSCLC
HCC-2998 colon = test system: HCC-2998 colon
UACC-257 melanoma = test system: UACC-257 melanoma
SF-268 CNS = test system: SF-268 CNS

Measured: TGI

O=C1[C@H]2ON(c3ccccc3)C(c3ccccc3F)[C@H]2C(=O)N1c1ccc(Cc2ccc(N3C(=O)[C@@H]4ON(c5ccccc5)C(c5ccccc5F)[C@@H]4C3=O)cc2)cc1 (some centres not stated)
> 100 µM: all assays above
